Data reported in patent US20240425478A1, “CYCLOPENTYLPYRAZOLE CDK2 INHIBITORS” (Genentech, Inc., priority 2021, published 2024).
Read-outs that look alike come from different tables or passages of the source.

Assays:
[1] = target: T1, Cyclin Dependent Kinase 2/Cyclin E1 (CDK2-cycE1) (Homo sapiens, UniProt P24941); assay: CDK2-cycE1 TR-FRET (LANCE) enzyme assay; assay type: biochemical; settings: for FS CDK1/CDK2 / FS CDK4/CDK2: fold selectivity; for increased fold-selectivity CDK4/CDK2 over Comparator C: (+) sign after FS CDK4/CDK2; for increased fold-selectivity CDK1/CDK2 over Comparator C: (+) sign after FS CDK1/CDK2;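 for improvement in potency against CDK2 (Ki) over Comparator C: fold lower CDK2 Ki than comparator c (Ki 0.032 µM)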
T1 construct: purchased ProQinase 0050-0055-1
In short: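 Compound dose responses pre-incubated 30 min with CDK2-cycE1 in 50 mM HEPES pH 7.5, 10 mM MgCl2, 2 mM TCEP, 0.05% BGG, 0.01% Brij 35. Reaction quenched with EDTA (15 mM final), phospho-MBP detected by Eu-anti-phospho-MBP TR-FRET (acceptor/donor ratio). Inhibition constants from Morrison equation.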

[2] = system: SKOV-3 (ATCC HTB-77); assay: SKOV-3 EdU incorporation cell proliferation assay (CDK4/6-dependent); assay type: cell-based; settings: for IC50: Homo sapiens, cellular assay, read-out: CDK4/6 SKOV-3 IC50; for FS SKOV-3/OVISE: fold selectivity, cellular IC50 ratio
In short: (§1)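 Cells in RPMI/10% FBS dosed with compound (0.5% DMSO final) for 16 h at 37 °C, 5% CO2, then EdU 0.5 μM final for 8 h before fixation and imaging. IC50 from 4-parameter logistic fit of EdU-positive cell fraction versus dose.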

[3] = target: T2, Cyclin Dependent Kinase 4/Cyclin D3 (CDK4-cycD3) (Homo sapiens, UniProt P11802); assay: CDK4-cycD3 TR-FRET (LANCE) enzyme assay; assay type: biochemical; settings: for Ki: Table O, enzymatic assay; for FS CDK4/CDK2: fold selectivity, enzymatic Ki ratio
T2 construct: purchased Carna Biosciences 04-105
T2 sequence (P11802 whole entry): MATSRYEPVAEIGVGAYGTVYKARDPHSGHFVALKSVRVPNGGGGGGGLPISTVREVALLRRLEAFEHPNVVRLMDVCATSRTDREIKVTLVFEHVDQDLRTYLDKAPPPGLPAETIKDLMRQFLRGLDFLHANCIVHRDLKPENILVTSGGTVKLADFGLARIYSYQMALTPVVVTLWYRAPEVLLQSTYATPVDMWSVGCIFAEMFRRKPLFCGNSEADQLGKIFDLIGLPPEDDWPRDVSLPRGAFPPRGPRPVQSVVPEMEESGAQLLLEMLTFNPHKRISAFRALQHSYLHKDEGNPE
T2 sequence (P30281 whole entry partner): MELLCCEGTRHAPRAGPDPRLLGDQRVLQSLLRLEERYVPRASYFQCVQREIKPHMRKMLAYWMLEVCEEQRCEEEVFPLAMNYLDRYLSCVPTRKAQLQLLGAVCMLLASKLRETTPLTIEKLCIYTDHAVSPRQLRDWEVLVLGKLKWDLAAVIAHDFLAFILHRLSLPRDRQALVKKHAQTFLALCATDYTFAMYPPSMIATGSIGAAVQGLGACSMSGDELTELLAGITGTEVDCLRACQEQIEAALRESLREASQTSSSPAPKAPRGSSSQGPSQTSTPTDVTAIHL
In short: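 Compound dose responses pre-incubated 30 min with enzyme mix in 50 mM HEPES pH 7.5, 10 mM MgCl2, 2 mM TCEP, 0.05% BGG, 0.01% Brij 35. Reaction quenched with EDTA (15 mM final); Eu-anti-phospho-4E-BP1 TR-FRET detection, acceptor/donor ratio. Ki derived by Morrison equation.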

[4] = system: HCT116 cells; assay: p-H3 HCT-116 mitotic release cell proliferation assay (cellular CDK1); assay type: cell-based; settings: Homo sapiens, HCT-116; Table O, cellular assay; read-out: CDK1 p-H3 IC50
Method: Inhibition of cellular CDK1 determined by release of cells from nocodazole-induced mitotic arrest, as measured by decrease in phospho-Histone H3. Histone H3 (Ser 10) level is detected in cell lysates by producing a Fluorescence Resonance Energy Transfer (FRET) signal between two antibodies, Phospho-Histone H3 Cryptate (acting as the donor) and Phospho-Histone H3 d2 (acting as the acceptor).
Plates are allowed to rest overnight at 37° C./5% CO2. The following morning, nocodazole is diluted in complete medium, and 5 μL is added to each test well and positive control well for a final concentration of 500 nM. Plates are then incubated for 16 hours at 37° C./5% CO2. […] 10 μL of diluted compound is then transferred to the cell plate (final DMSO concentration 0.1%). Cell plates are then incubated for 4 hours in 37° C. 5% CO2. A cell lysis buffer is prepared on ice using reagents from the Phospho-Histone H3 (Ser10) cellular kit (Cisbio-64HH3PEG). Supernatant is discarded from the cell plate and 80 μL of the supplemented cell lysis buffer (1:99 dilution of the Blocking Reagent and the 1× cell lysis buffer provided in the kit) is added to each of the experimental wells. The cell lysis reaction is allowed to proceed at room temperature while shaking vigorously for 30 minutes. The 384-well HTRF (Homogeneous Time Resolved Fluorescence) plate is prepared by adding 2 μL of each diluted antibody (Phospho-Histone H3 Cryptate antibody and Phospho-Histone H3 d2 antibody diluted 19:1 in a detection buffer) and 12 μL of the supplemented cell lysis buffer to each well in the HTRF plate. 4 μL of the cell lysate is added to the prepared HTRF plate which is then sealed and the reaction is allowed to proceed for a minimum of 2 hours at room temperature.

[5] = system: OVISE (JCRB1043, CCNE1-amplified); assay: OVISE EdU incorporation cell proliferation assay (CDK2-dependent); assay type: cell-based; settings: for IC50: cellular assay, read-out: CDK2 OVISE IC50; for FS SKOV-3/OVISE / FS p-H3/OVISE: fold selectivity; for FS p-H3/OVISE: cellular p-H3 IC50 over OVISE IC50; for increased fold-selectivity SKOV-3/OVISE over Comparator C: (+) sign after FS SKOV-3/OVISE; for improvement in CDK2 OVISE cell potency over Comparator C: Comparator C 5.5 μM
In short: as §1

[6] = target: T3, Cyclin Dependent Kinase 1/Cyclin A2 (CDK1-cycA2) (Homo sapiens, UniProt P06493); assay: CDK1-cycA2 TR-FRET (Lance) enzyme assay; assay type: biochemical; settings: for Ki: Table O, enzymatic assay; for FS CDK1/CDK2: fold selectivity, enzymatic Ki ratio
T3 construct: purchased ProQinase 0134-0054-1
T3 sequence (P06493 whole entry): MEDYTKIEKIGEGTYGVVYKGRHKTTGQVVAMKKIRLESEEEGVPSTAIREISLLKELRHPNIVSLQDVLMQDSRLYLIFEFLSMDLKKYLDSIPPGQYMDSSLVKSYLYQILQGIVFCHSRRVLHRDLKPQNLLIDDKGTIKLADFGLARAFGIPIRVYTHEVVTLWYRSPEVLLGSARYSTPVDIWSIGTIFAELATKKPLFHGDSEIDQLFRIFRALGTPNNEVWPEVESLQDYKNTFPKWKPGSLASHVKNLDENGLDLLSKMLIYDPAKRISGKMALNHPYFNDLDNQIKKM
T3 sequence (P20248 whole entry partner): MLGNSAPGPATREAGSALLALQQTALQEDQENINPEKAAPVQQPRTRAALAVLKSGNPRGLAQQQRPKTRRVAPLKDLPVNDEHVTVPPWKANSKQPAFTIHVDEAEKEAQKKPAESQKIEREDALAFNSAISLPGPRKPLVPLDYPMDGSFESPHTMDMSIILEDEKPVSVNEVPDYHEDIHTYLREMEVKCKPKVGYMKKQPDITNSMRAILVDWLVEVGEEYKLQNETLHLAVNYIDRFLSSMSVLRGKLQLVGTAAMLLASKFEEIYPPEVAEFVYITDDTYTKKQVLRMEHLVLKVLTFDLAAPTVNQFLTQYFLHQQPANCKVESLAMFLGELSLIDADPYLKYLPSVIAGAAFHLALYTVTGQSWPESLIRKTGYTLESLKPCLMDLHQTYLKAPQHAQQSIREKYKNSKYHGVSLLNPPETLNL
In short: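 Human CDK1/cyclin A2 pre-incubated 30 min with compound dose responses in 50 mM HEPES pH 7.5, 10 mM MgCl2, 2 mM TCEP, 0.05% BGG, 0.01% Brij 35. Reaction quenched with EDTA (15 mM final); TR-FRET readout using Eu-anti-phospho-4E-BP1, acceptor/donor ratio. Inhibition constants from Morrison equation.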

[7] = Table O, enzymatic assay, read-out: CDK2 Ki
[8] = Table O, enzymatic CDK1 Ki over CDK2 Ki
[9] = Table O, enzymatic CDK4 Ki over CDK2 Ki
[10] = Table Q, enzymatic assay, read-out: CDK2 Ki
[11] = Table O, cellular SKOV-3 IC50 over OVISE IC50
[12] = Table Q, in brackets after OVISE IC50

Row | Compound | Ki [1, 7] [nM] | FS CDK1/CDK2 [1, 8] | FS CDK4/CDK2 [1, 9] | increased fold-selectivity CDK4/CDK2 over Comparator C ([1]; Table Q) | Ki [1, 10] [nM] | FS CDK1/CDK2 ([1]; Table Q, enzymatic) | FS CDK4/CDK2 ([1]; Table Q, enzymatic) | IC50 ([2]; SK-OV-3, Table O) [nM] | IC50 ([2]; SK-OV-3, Table Q) [nM] | Ki [3] [nM] | IC50 [4] [nM] | IC50 ([5]; Table O) [nM] | FS SKOV-3/OVISE [5, 11] | FS p-H3/OVISE ([5]; Table O) | increased fold-selectivity SKOV-3/OVISE over Comparator C ([5]; Table Q) | FS SKOV-3/OVISE ([5]; Table Q, cellular) | improvement in CDK2 OVISE cell potency over Comparator C [5, 12] [fold] | Ki [6] [nM] | improvement in potency against CDK2 (Ki) over Comparator C [1] [fold] | increased fold-selectivity CDK1/CDK2 over Comparator C ([1]; Table Q) | also measured
1 | CC(C)NC(=O)O[C@@H]1CC[C@H](c2cc(Nc3ccc(=O)n(C)n3)n[nH]2)C1 [Example 2, (1R,3S)-3-(3-((1-methyl-6-oxo-1,6-dihydropyridazin-3-yl)amino)-1H-pyrazol-5-yl)cyclopentyl isopropylcarbamate] | 0.44 | 36 | 550 | (+) (The (+) sign in Table Q signifies desirable increased fold-selectivity of the exemplary compounds over Comparator C) | 0.44 | 36 | 550 | 11000 | 11000 | 240 | 190 | 93 | 120 | 1.9 | (+) (The (+) sign in Table Q signifies desirable increased fold-selectivity of the exemplary compounds over Comparator C) | 120 | 59 | 16 |  |  | improvement in potency against CDK2 (Ki) over Comparator C ([1]; Table Q, in brackets after CDK2 Ki, Comparator C 0.032 μM): 73 fold; Ki ([1]; read-out: CDK2 activity / potency (enzymatic assay)): ≤ 1 nM
2 | CC(C)NC(=O)O[C@@H]1CC[C@H](c2cc(Nc3cccnc3)n[nH]2)C1 [Example 2A, (1R,3S)-3-(3-(pyridin-3-ylamino)-1H-pyrazol-5-yl)cyclopentyl isopropylcarbamate] | 1.7 | 42 | 44 | (+) (The (+) sign in Table Q signifies desirable increased fold-selectivity of the exemplary compounds over Comparator C) | 1.7 | 42 | 44 | 2200 | 2200 | 75 | 94 | 110 | 20 | 0.66 | (+) (The (+) sign in Table Q signifies desirable increased fold-selectivity of the exemplary compounds over Comparator C) | 20 | 50 | 71 | 19 | (+) (The (+) sign in Table Q signifies desirable increased fold-selectivity of the exemplary compounds over Comparator C) | Ki ([1]; Table R, enzymatic assay, read-out: CDK2 Ki): 1.7 nM; CDK2 Ki fold change in potency versus Comparator D ([1]; Table R, in brackets after CDK2 Ki): 1.6 fold; Ki ([1]; Table S, enzymatic assay, read-out: CDK2 Ki): 1.7 nM; CDK2 Ki fold change in potency versus Comparator E ([1]; Table S, in brackets after CDK2 Ki): 0.3 fold; IC50 ([2]; SK-OV-3, Table R): 2200 nM; IC50 ([2]; SK-OV-3, Table S): 2200 nM; selectivity for CDK2 over CDK4 compared with Comparator E ([2]; SKOV-3/OVISE fold-selectivity cellular assay data): increase in selectivity for CDK2 over CDK4; FS SKOV-3/OVISE increased over Comparator D, (+) sign ([2]; Table R): (+); FS SKOV-3/OVISE ([2]; Table R): 20; FS SKOV-3/OVISE increased over Comparator E, (+) sign ([2]; Table S): (+); FS SKOV-3/OVISE ([2]; Table S): 20; FS CDK4/CDK2 increased over Comparator D, (+) sign ([3]; Table R): (+); FS CDK4/CDK2 ([3]; Table R): 44; FS CDK4/CDK2 ([3]; Table S): 44; CDK2 cell potency compared with Comparator E ([5]; CDK2 OVISE cellular assay data): more potent CDK2 cell inhibitors compared to Comparator E; CDK2 OVISE IC50 fold change in potency versus Comparator D ([5]; Table R, in brackets after OVISE IC50): 35 fold; CDK2 OVISE IC50 fold change in potency versus Comparator E ([5]; Table S, in brackets after OVISE IC50): 1.5 fold; FS CDK1/CDK2 increased over Comparator D, (+) sign ([6]; Table R): (+); FS CDK1/CDK2 ([6]; Table R): 42; FS CDK1/CDK2 ([6]; Table S): 42
3 | CC(C)NC(=O)O[C@@H]1CC[C@H](c2cc(Nc3cncnc3)n[nH]2)C1 [Example 2B, (1R,3S)-3-(3-(pyrimidin-5-ylamino)-1H-pyrazol-5-yl)cyclopentyl isopropylcarbamate] | 3.4 | 47 | 120 | (+) (The (+) sign in Table Q signifies desirable increased fold-selectivity of the exemplary compounds over Comparator C) | 3.4 | 47 | 120 | > 20000 | > 20000 | 390 | 2900 | 230 | >70 | 1.1 | (+) (The (+) sign in Table Q signifies desirable increased fold-selectivity of the exemplary compounds over Comparator C) | > 70 | 24 | 160 | 9 | (+) (The (+) sign in Table Q signifies desirable increased fold-selectivity of the exemplary compounds over Comparator C) | 
4 | CC(C)NC(=O)O[C@@H]1CC[C@H](c2cc(Nc3ccncn3)n[nH]2)C1 [Example 2C, (1R,3S)-3-(3-(pyrimidin-4-ylamino)-1H-pyrazol-5-yl)cyclopentyl isopropylcarbamate] | 1.1 | 39 | 86 | (+) (The (+) sign in Table Q signifies desirable increased fold-selectivity of the exemplary compounds over Comparator C) | 1.1 | 39 | 86 | 4100 | 4100 | 95 | 52 | 110 | 37 | 0.47 | (+) (The (+) sign in Table Q signifies desirable increased fold-selectivity of the exemplary compounds over Comparator C) | 37 | 50 | 43 | 32 | (+) (The (+) sign in Table Q signifies desirable increased fold-selectivity of the exemplary compounds over Comparator C) | 
